Laboratory results from ChEMBL document CHEMBL1134625 (J Med Chem, 2001).

Legend:
[1] = biological target: 5-hydroxytryptamine receptor 2A (Homo sapiens, UniProt P28223)
Cannabinoid receptor 1 = Cannabinoid receptor 1 (Homo sapiens, UniProt P21554)
D(3) dopamine receptor = D(3) dopamine receptor (Homo sapiens, UniProt P35462)
D(4) dopamine receptor = biological target: T1, D(4) dopamine receptor (Homo sapiens, UniProt P21917)
T1 sequence (P21917 whole entry): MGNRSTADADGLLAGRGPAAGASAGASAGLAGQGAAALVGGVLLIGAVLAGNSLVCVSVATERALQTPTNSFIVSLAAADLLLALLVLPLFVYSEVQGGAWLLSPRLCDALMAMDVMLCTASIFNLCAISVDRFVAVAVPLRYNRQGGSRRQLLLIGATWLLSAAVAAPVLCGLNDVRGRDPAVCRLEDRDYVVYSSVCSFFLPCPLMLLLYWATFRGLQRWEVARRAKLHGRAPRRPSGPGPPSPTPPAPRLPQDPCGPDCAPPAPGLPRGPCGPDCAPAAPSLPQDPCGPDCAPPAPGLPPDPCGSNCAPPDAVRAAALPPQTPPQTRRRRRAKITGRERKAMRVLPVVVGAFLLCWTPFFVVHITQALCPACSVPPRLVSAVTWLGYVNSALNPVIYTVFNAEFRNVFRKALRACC

D(2) dopamine receptor = D(2) dopamine receptor (Homo sapiens, UniProt P14416)
Sequence of D(2) dopamine receptor (P14416 whole entry): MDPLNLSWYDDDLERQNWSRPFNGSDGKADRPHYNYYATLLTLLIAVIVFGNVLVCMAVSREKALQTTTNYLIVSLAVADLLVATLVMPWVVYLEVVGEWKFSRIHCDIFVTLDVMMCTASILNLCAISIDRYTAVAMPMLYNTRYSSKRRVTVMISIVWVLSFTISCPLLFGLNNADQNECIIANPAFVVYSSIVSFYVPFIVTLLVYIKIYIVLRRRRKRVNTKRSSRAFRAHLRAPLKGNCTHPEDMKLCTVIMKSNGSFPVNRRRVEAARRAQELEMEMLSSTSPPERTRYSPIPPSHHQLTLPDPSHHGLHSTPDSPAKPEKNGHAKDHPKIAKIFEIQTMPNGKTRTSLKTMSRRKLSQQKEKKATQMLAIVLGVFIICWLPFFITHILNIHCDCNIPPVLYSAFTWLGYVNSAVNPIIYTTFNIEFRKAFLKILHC

D(1A) dopamine receptor = D(1A) dopamine receptor (Homo sapiens, UniProt P21728)
Sequence of D(1A) dopamine receptor (P21728 whole entry): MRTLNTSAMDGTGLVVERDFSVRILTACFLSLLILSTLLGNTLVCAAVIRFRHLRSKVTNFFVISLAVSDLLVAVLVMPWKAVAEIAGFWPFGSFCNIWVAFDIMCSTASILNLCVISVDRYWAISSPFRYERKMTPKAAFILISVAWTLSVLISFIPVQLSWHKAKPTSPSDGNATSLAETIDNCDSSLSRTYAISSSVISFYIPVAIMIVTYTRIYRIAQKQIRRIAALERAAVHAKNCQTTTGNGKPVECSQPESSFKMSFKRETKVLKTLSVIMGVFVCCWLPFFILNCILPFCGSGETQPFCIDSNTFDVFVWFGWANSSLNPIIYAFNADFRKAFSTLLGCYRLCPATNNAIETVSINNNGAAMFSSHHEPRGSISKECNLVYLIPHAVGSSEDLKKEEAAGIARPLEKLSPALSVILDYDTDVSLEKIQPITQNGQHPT

D(1B) dopamine receptor = D(1B) dopamine receptor (Homo sapiens, UniProt P21918)
Sequence of D(1B) dopamine receptor (P21918 whole entry): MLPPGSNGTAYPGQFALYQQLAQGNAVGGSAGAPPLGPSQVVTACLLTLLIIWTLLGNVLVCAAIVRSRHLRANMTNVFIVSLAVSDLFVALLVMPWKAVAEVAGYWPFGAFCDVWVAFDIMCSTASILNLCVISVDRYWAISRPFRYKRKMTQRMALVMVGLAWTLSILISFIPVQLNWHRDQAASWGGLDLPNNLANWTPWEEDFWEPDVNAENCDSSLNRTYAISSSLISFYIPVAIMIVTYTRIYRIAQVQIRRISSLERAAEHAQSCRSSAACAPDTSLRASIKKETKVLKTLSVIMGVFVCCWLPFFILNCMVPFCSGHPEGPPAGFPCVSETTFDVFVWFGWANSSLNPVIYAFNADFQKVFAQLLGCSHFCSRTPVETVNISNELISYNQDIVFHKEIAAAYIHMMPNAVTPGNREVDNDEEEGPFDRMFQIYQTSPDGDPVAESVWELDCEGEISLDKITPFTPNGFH

[2] = biological target: Sodium-dependent dopamine transporter (Homo sapiens, UniProt Q01959)
Sequence of Sodium-dependent dopamine transporter (Q01959 whole entry): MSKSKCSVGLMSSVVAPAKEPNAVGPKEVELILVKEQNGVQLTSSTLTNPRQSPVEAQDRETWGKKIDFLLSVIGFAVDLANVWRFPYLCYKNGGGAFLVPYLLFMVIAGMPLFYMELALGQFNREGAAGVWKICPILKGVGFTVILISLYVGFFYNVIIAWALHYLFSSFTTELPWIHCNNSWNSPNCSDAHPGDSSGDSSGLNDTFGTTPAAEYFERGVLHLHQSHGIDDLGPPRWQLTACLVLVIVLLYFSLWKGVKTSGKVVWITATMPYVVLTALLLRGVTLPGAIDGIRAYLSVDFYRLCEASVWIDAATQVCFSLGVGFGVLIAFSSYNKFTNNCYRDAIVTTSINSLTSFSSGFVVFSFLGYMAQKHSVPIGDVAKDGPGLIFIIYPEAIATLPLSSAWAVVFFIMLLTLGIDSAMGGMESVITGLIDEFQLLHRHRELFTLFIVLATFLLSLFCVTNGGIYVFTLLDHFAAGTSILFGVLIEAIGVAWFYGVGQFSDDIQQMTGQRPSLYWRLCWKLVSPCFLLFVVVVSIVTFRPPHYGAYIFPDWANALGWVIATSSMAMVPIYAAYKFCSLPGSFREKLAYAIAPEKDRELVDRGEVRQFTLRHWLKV

Histamine H2 receptor = Histamine H2 receptor (Homo sapiens, UniProt P25021)
Sequence of Histamine H2 receptor (P25021 whole entry): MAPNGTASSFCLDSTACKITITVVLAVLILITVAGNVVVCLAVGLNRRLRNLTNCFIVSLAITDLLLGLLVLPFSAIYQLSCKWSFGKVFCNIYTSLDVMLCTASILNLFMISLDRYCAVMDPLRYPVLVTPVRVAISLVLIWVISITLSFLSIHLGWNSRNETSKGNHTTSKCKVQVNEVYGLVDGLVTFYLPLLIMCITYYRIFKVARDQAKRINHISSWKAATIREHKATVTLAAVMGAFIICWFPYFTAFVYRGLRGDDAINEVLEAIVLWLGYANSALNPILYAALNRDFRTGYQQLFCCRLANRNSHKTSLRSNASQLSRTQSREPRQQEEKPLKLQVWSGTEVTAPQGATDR

[3] = biological target: Sodium-dependent noradrenaline transporter (Homo sapiens, UniProt P23975)
Sequence of Sodium-dependent noradrenaline transporter (P23975 whole entry): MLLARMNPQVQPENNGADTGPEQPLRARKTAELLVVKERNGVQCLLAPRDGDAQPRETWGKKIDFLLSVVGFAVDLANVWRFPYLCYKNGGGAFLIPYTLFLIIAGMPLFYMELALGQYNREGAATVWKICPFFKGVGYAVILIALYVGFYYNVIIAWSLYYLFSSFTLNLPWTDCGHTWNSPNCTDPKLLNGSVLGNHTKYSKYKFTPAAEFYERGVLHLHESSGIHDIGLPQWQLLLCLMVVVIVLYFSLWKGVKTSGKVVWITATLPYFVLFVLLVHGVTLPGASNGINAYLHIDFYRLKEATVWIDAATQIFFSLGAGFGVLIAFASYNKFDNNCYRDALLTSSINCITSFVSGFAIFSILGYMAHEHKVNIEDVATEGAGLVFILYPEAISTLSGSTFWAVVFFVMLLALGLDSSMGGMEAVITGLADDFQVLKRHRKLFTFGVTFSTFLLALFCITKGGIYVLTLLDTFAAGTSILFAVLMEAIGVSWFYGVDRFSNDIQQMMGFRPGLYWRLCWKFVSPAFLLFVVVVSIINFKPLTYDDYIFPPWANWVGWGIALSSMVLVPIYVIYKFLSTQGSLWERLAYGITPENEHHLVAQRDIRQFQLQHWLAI

[4] = biological target: T2, Adrenergic receptor alpha-1 (Homo sapiens, UniProt P35348+P25100+P35368); type: protein assay
T2 sequence (P35348 whole entry): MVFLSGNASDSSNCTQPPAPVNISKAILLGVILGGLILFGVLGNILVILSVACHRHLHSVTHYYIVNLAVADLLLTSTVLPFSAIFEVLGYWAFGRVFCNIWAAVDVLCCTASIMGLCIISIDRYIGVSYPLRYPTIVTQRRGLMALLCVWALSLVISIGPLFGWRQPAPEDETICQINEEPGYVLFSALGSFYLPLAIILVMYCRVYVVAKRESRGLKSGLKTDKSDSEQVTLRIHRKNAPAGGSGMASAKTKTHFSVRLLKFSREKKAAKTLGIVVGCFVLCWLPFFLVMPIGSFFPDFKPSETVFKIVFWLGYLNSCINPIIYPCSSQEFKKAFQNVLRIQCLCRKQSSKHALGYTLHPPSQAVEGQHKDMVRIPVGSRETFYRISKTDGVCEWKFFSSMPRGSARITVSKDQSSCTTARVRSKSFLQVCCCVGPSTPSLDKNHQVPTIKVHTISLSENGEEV
T2 sequence (P25100 whole entry): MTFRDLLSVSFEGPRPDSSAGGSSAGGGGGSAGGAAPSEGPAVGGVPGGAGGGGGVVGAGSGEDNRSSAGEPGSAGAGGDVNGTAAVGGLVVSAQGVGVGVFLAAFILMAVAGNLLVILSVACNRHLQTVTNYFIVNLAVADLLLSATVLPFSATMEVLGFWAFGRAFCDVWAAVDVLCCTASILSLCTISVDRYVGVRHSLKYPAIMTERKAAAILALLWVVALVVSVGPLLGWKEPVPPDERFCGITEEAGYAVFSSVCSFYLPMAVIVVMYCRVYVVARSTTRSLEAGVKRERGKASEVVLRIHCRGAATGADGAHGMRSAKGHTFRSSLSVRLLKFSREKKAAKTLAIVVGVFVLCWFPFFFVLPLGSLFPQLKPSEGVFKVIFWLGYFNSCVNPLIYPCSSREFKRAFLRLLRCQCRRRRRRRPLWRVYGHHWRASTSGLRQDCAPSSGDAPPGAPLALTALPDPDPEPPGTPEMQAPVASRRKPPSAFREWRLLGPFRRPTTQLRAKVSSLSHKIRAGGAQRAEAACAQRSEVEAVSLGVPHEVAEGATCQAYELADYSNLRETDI
T2 sequence (P35368 whole entry): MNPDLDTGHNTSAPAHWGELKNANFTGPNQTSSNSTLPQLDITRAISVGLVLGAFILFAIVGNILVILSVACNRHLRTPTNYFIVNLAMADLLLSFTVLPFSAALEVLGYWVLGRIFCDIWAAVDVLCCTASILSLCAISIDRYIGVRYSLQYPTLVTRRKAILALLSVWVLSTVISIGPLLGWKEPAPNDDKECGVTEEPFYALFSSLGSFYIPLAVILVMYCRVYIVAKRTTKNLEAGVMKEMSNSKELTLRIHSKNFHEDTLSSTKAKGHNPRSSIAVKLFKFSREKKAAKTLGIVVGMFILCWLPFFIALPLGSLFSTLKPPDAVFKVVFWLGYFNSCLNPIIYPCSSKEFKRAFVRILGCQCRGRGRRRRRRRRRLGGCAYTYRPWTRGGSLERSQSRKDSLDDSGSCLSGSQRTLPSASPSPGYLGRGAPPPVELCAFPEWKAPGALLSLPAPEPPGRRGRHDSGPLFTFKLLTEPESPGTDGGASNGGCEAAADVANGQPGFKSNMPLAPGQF

[5] = biological target: 5-hydroxytryptamine receptor 1B (Homo sapiens, UniProt P28222)
Sequence of 5-hydroxytryptamine receptor 1B (P28222 whole entry): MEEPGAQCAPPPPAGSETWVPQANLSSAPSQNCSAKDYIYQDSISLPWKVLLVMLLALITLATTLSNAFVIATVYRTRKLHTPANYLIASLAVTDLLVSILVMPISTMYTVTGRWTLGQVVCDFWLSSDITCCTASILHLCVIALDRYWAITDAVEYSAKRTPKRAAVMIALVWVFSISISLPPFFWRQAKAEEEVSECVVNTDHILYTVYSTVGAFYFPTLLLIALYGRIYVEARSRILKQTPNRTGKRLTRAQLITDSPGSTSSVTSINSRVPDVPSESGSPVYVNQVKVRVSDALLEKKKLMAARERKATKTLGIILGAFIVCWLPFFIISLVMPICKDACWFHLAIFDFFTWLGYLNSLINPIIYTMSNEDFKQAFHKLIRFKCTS

Sequence of 5-hydroxytryptamine receptor 2A (P28223 whole entry): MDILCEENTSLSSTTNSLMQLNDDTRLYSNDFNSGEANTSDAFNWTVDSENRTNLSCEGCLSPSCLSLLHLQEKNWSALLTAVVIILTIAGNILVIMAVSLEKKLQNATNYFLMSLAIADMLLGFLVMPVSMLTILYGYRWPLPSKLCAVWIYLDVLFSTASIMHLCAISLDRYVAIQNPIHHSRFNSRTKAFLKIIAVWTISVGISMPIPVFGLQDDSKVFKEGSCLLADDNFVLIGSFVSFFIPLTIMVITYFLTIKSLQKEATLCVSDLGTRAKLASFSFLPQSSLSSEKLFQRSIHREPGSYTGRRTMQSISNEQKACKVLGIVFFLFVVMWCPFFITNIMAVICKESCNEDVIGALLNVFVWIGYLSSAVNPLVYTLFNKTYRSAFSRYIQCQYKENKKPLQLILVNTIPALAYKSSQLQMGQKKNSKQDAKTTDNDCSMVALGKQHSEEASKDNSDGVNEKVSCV
Sequence of Cannabinoid receptor 1 (P21554 whole entry): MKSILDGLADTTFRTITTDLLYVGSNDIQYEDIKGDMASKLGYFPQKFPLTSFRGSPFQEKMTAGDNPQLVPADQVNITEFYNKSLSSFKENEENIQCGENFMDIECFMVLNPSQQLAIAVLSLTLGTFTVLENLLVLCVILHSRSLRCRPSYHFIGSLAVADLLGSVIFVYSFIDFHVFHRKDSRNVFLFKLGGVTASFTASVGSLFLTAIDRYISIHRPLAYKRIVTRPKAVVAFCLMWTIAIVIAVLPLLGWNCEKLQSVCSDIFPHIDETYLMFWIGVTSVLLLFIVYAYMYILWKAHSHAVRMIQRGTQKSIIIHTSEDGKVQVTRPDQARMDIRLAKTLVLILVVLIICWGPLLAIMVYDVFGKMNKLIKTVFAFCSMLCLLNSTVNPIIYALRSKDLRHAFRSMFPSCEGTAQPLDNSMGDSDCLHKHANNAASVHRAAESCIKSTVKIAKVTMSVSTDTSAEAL
Sequence of D(3) dopamine receptor (P35462 whole entry): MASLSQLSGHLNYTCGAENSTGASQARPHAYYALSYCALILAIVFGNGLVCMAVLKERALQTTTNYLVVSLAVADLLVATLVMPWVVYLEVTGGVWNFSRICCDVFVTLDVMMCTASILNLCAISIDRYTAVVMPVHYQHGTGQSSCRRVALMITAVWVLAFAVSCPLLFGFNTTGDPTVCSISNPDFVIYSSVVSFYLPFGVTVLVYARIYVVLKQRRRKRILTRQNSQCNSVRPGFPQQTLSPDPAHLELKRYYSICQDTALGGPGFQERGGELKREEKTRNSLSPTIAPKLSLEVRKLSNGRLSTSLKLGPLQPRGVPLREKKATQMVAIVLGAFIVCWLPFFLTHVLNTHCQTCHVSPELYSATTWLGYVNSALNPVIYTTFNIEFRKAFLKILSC

N#Cc1ccc(CCOC(=O)NC2CCN(CCCC(c3ccc(F)cc3)c3ccc(F)cc3)CC2)cc1 gave an IC50 [1] of 683 nM, an IC50 (Cannabinoid receptor 1) of 6090 nM and an IC50 (D(3) dopamine receptor) of 538 nM. It also gave an IC50 (D(4) dopamine receptor) of 543 nM, an IC50 (D(2) dopamine receptor) of 551 nM and an IC50 (D(1A) dopamine receptor) of 376 nM. It also gave an IC50 (D(1B) dopamine receptor) of 513 nM, an IC50 [2] of 781 nM and an IC50 (Histamine H2 receptor) of 368 nM. For the same molecule, the IC50 [3] was 1140 nM, the IC50 [4] was 417 nM and the IC50 [5] was 3580 nM.
